Laboratory results from patent publication US20230117034A1, “PYRAZOLOTRIAZINES” (Bayer Aktiengesellschaft, priority 2019, published 2023).

Columns and labels:
[1] = target: T1, CDK2/CycE (Homo sapiens, UniProt P24941); experiment: CDK2/CycE kinase assay (TR-FRET, 2 mM ATP); format: biochemical; conditions: 2 mM ATP (high ATP); median; read-out: CDK2/CyclinE, 2 mM ATP (high ATP), IC50 (median)
T1 construct: purchased ProQinase GmbH (Freiburg, Germany); host or cells: insect cells (Sf9)
In short: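 Biotin-peptide phosphorylation (0.75 µM substrate, 2 mM ATP final, 25 min, 22 °C) by Sf9-expressed GST-CDK2/GST-CycE, after a 15-min compound pre-binding step. Inhibition scaled between enzyme-free (100%) and uninhibited (0%) wells.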

[2] = target: CDK12/CycK (Homo sapiens, UniProt Q9NYV4); experiment: CDK12/CycK high ATP kinase assay (TR-FRET, 2 mM ATP); format: biochemical; conditions: 2 mM ATP (high ATP); median; read-out: CDK12/CyclinK, 2 mM ATP (high ATP), IC50-[mol/l] (median)
In short: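 Read-out is TR-FRET (Eu-anti-rabbit IgG, anti-phospho-c-Myc Ser62 antibody, streptavidin-XL665) after EDTA stop. Reaction ran 60 min at 22 °C using 1 µM biotin-peptide and high ATP (2 mM) with roughly 0.75 nM recombinant CDK12/CycK, after 15 min compound pre-binding; normalised emission ratios yield IC50.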

CDK12/CycK, sequence (Q9NYV4 with tags, fused parts or gaps): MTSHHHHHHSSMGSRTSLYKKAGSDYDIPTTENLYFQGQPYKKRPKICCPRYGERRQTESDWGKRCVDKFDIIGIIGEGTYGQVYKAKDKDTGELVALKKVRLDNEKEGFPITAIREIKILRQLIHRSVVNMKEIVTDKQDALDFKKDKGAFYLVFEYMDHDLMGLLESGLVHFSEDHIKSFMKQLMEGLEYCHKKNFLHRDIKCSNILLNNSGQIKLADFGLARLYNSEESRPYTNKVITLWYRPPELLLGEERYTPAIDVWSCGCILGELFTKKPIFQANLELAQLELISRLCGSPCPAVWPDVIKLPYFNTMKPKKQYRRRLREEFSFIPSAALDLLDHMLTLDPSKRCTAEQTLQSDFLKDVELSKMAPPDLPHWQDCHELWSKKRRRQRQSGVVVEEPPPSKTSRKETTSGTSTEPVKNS
CDK12/CycK, sequence (O75909 1-300 partner limits assumed): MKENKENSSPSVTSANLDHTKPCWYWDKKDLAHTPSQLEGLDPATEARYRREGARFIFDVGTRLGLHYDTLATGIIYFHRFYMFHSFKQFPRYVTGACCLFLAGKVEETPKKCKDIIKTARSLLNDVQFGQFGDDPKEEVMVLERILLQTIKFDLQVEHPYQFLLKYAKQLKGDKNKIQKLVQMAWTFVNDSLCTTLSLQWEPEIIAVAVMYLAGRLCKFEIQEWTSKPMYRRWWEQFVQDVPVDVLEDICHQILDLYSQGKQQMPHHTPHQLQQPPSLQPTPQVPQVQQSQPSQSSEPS

| Compound | IC50 [1] [µM] | IC50 [2] [µM] |
| --- | --- | --- |
| COC(C)(C)COc1nc(NCc2nc3ccccc3[nH]2)n2ncc(Br)c2n1 [Example 403, N-[(1H-benzimidazol-2-yl)methyl]-8-bromo-2-(2-methoxy-2-methylpropoxy)pyrazolo[1,5-a][1,3,5]triazin-4-amine] | > 20 | > 20 |
| CCc1cnn2c(NCc3nc4ccccc4[nH]3)nc(N3CCOCC3)nc12 [Example 431, N-[(1H-benzimidazol-2-yl)methyl]-8-ethyl-2-(morpholin-4-yl)pyrazolo[1,5-a][1,3,5]triazin-4-amine] | 1.59 | 2.81 |
| FC(F)n1cc(-c2cnn3c(NCc4nc5cc(Cl)c(Cl)cc5[nH]4)nc(N4CCOCC4)nc23)cn1 [Example 423, N-[(5,6-dichloro-1H-benzimidazol-2-yl)methyl]-8-[1-(difluoromethyl)-1H-pyrazol-4-yl]-2-(morpholin-4-yl)pyrazolo[1,5-a][1,3,5]triazin-4-amine] | > 20 | > 12.9 |
| Fc1ccc(-c2nnc(CNc3nc(N4CCOCC4)nc4c(Br)cnn34)[nH]2)c(F)c1 [Example 41, 8-bromo-N-{[5-(2,4-difluorophenyl)-4H-1,2,4-triazol-3-yl]methyl}-2-(morpholin-4-yl)pyrazolo[1,5-a][1,3,5]triazin-4-amine] | > 1.63 | > 5.71 |
| CC(C)c1cnn2c(NCc3nnc(-c4ccccc4)[nH]3)nc(N3CCN(C)CC3)nc12 [Example 37, 2-(4-methylpiperazin-1-yl)-N-[(5-phenyl-4H-1,2,4-triazol-3-yl)methyl]-8-(propan-2-yl)pyrazolo[1,5-a][1,3,5]triazin-4-amine] | > 15.3 | > 20 |
| C[C@H]1COCCN1c1nc(NCc2nc3ccccc3[nH]2)n2ncc(Br)c2n1 [Example 57, N-[(1H-benzimidazol-2-yl)methyl]-8-bromo-2-[(3S)-3-methylmorpholin-4-yl]pyrazolo[1,5-a][1,3,5]triazin-4-amine] | 1.22 | 1.04 |
| COc1cccc(-c2nnc(CNc3nc(N4CCOCC4)nc4c(Br)cnn34)[nH]2)c1 [Example 50, 8-bromo-N-{[5-(3-methoxyphenyl)-4H-1,2,4-triazol-3-yl]methyl}-2-(morpholin-4-yl)pyrazolo[1,5-a][1,3,5]triazin-4-amine] | 2.33 | 2.8 |
| CC(C)c1cnn2c(NCc3ncc(-c4ccccc4)[nH]3)nc(N(C)CC(C)(C)O)nc12 [Example 35, 2-methyl-1-{methyl[4-{[(5-phenyl-1H-imidazol-2-yl)methyl]amino}-8-(propan-2-yl)pyrazolo[1,5-a][1,3,5]triazin-2-yl]amino}propan-2-ol] | 1.7 | 2.21 |
| OC[C@@H]1CCCCN1c1nc(NCc2nc3ccccc3[nH]2)n2ncc(Br)c2n1 [Example 59, [(2S)-1-(4-{[(1H-benzimidazol-2-yl)methyl]amino}-8-bromopyrazolo[1,5-a][1,3,5]triazin-2-yl)piperidin-2-yl]methanol] | 1.05 | 0.547 |
| CN1CCN(c2nc(NCc3nc4cc(Cl)c(Cl)cc4[nH]3)n3ncc(-c4cnn(C)c4)c3n2)CC1 [Example 420, N-[(5,6-dichloro-1H-benzimidazol-2-yl)methyl]-2-(4-methylpiperazin-1-yl)-8-(1-methyl-1H-pyrazol-4-yl)pyrazolo[1,5-a][1,3,5]triazin-4-amine] | > 20 | > 20 |
| Fc1ccc2[nH]c(CNc3nc(N4CCOCC4)nc4c(-c5cncs5)cnn34)nc2c1F.O=C(O)C(F)(F)F [Example 442, trifluoroacetic acid N-[(4,5-difluoro-1H-benzimidazol-2-yl)methyl]-2-(morpholin-4-yl)-8-(1,3-thiazol-5-yl)pyrazolo[1,5-a][1,3,5]triazin-4-amine] | > 20 | 0.583 |
| O=C(O)C(F)(F)F.c1ccc2[nH]c(CNc3nc(N4CCOCC4)nc4c(-c5cncs5)cnn34)nc2c1 [Example 441, trifluoroacetic acid-N-[(1H-benzimidazol-2-yl)methyl]-2-(morpholin-4-yl)-8-(1,3-thiazol-5-yl)pyrazolo[1,5-a][1,3,5]triazin-4-amine (1/1)] | > 20 | 4.18 |
| Cc1cnn2c(NCc3nc4ccccc4[nH]3)nc(N(C)CC(C)(C)O)nc12 [Example 397, 1-[(4-{[(1H-benzimidazol-2-yl)methyl]amino}-8-methylpyrazolo[1,5-a][1,3,5]triazin-2-yl)(methyl)amino]-2-methylpropan-2-ol] | 17.2 | > 17.5 |
| CC(C)c1cnn2c(NCc3nnc(-c4ccccc4)[nH]3)nc(N3CCOCC3)nc12 [Example 33, 2-(morpholin-4-yl)-N-[(5-phenyl-4H-1,2,4-triazol-3-yl)methyl]-8-(propan-2-yl)pyrazolo[1,5-a][1,3,5]triazin-4-amine] | 8.26 | 5.23 |
| Cc1cnn2c(NCc3nc4ccccc4[nH]3)nc(N3CCOCC3)nc12 [Example 393, N-[(1H-benzimidazol-2-yl)methyl]-8-methyl-2-(morpholin-4-yl)pyrazolo[1,5-a][1,3,5]triazin-4-amine] | 9.94 | > 20 |
| Clc1cc2nc(CNc3nc(N4CCOCC4)nc4c(-c5cncs5)cnn34)[nH]c2cc1Cl [Example 443, N-[(5,6-dichloro-1H-benzimidazol-2-yl)methyl]-2-(morpholin-4-yl)-8-(1,3-thiazol-5-yl)pyrazolo[1,5-a][1,3,5]triazin-4-amine] | > 20 | 3.98 |
| Cc1cnn2c(NCc3nc4c(F)c(F)ccc4[nH]3)nc(N3CCN(C)CC3)nc12 [Example 394, N-[(4,5-difluoro-1H-benzimidazol-2-yl)methyl]-8-methyl-2-(4-methylpiperazin-1-yl)pyrazolo[1,5-a][1,3,5]triazin-4-amine] | > 20 | > 18.7 |
| COc1ccccc1-c1nnc(CNc2nc(N3CCOCC3)nc3c(Br)cnn23)[nH]1 [Example 61, 8-bromo-N-{[5-(2-methoxyphenyl)-4H-1,2,4-triazol-3-yl]methyl}-2-(morpholin-4-yl)pyrazolo[1,5-a][1,3,5]triazin-4-amine] | 9.06 | > 20 |
| Clc1cccc(-c2nnc(CNc3nc(N4CCOCC4)nc4c(Br)cnn34)[nH]2)c1 [Example 51, 8-bromo-N-{[5-(3-chlorophenyl)-4H-1,2,4-triazol-3-yl]methyl}-2-(morpholin-4-yl)pyrazolo[1,5-a][1,3,5]triazin-4-amine] | 1.64 | 1.73 |
| CN1CCN(c2nc(NCc3nc4c(F)c(F)ccc4[nH]3)n3ncc(-c4nccs4)c3n2)CC1 [Example 415, N-[(4,5-difluoro-1H-benzimidazol-2-yl)methyl]-2-(4-methylpiperazin-1-yl)-8-(1,3-thiazol-2-yl)pyrazolo[1,5-a][1,3,5]triazin-4-amine] | > 20 | > 20 |
| Brc1cnn2c(NCc3nc4ccccc4[nH]3)nc(OC3CCCCC3)nc12 [Example 406, N-[(1H-benzimidazol-2-yl)methyl]-8-bromo-2-(cyclohexyloxy)pyrazolo[1,5-a][1,3,5]triazin-4-amine] | 15 | > 20 |
| Brc1cnn2c(NCc3nc4ccccc4[nH]3)nc(OC3CCNCC3)nc12 [Example 411, N-[(1H-benzimidazol-2-yl)methyl]-8-bromo-2-[(piperidin-4-yl)oxy]pyrazolo[1,5-a][1,3,5]triazin-4-amine] | 16.3 | > 20 |
| Fc1cccc(-c2nnc(CNc3nc(N4CCOCC4)nc4c(Br)cnn34)[nH]2)c1 [Example 44, 8-bromo-N-{[5-(3-fluorophenyl)-4H-1,2,4-triazol-3-yl]methyl}-2-(morpholin-4-yl)pyrazolo[1,5-a][1,3,5]triazin-4-amine] | 1.13 | 1.34 |
| FC(F)n1cc(-c2cnn3c(NCc4nc5ccccc5[nH]4)nc(N4CCOCC4)nc23)cn1 [Example 421, N-[(1H-benzimidazol-2-yl)methyl]-8-[1-(difluoromethyl)-1H-pyrazol-4-yl]-2-(morpholin-4-yl)pyrazolo[1,5-a][1,3,5]triazin-4-amine] | > 20 | 8.58 |
| CN1CCN(c2nc(NCc3nc4c(F)c(F)ccc4[nH]3)n3ncc(CC(F)(F)F)c3n2)CC1 [Example 437, N-[(4,5-difluoro-1H-benzimidazol-2-yl)methyl]-2-(4-methylpiperazin-1-yl)-8-(2,2,2-trifluoroethyl) pyrazolo[1,5-a][1,3,5]triazin-4-amine] | > 20 | > 20 |
| Brc1cnn2c(NCc3nc4ccccc4[nH]3)nc(OCCN3CCCC3)nc12 [Example 404, N-[(1H-benzimidazol-2-yl)methyl]-8-bromo-2-[2-(pyrrolidin-1-yl)ethoxy]pyrazolo[1,5-a][1,3,5]triazin-4-amine] | > 20 | > 20 |
| CN(C)CCOc1nc(NCc2nc3ccccc3[nH]2)n2ncc(Br)c2n1 [Example 399, N-[(1H-benzimidazol-2-yl)methyl]-8-bromo-2-[2-(dimethylamino)ethoxy]pyrazolo[1,5-a][1,3,5]triazin-4-amine] | > 20 | > 20 |
| CN(CC(C)(C)O)c1nc(NCc2nc3c(F)c(F)ccc3[nH]2)n2ncc(C(F)(F)F)c2n1 [Example 402, 1-{[4-{[(4,5-difluoro-1H-benzimidazol-2-yl)methyl]amino}-8-(trifluoromethyl)pyrazolo[1,5-a][1,3,5]triazin-2-yl](methyl)amino}-2-methylpropan-2-ol] | 9.56 | 0.224 |
